Values of other authors, collected in patent EP3231454B1, “BONE CEMENT COMPRISING MICROENCAPSULATED ANTIMICROBIAL” (UNIVERSIDAD PONTIFICIA COMILLAS, priority 2016, dated 2017).

Details: addition of 1 g of vancomycin to bone cement

Question: With `CN[C@H](CC(C)C)C(=O)N[C@H]1C(=O)N[C@@H](CC(N)=O)C(=O)N[C@H]2C(=O)N[C@H]3C(=O)N[C@H](C(=O)N[C@H](C(=O)O)c4cc(O)cc(O)c4-c4cc3ccc4O)[C@H](O)c3ccc(c(Cl)c3)Oc3cc2cc(c3O[C@@H]2O[C@H](CO)[C@@H](O)[C@H](O)[C@H]2O[C@H]2C[C@](C)(N)[C@H](O)[C@H](C)O2)Oc2ccc(cc2Cl)[C@H]1O` [vancomycin] as the compound, how does the “reduction in bending resistance” value read?
Answer: The value was “more than 20%”.
